Results on 2 molecules are retold here after patent publication US20220339233A1, “COMPOSITIONS AND METHODS FOR PREVENTING RECURRENCE OF CANCER” (YALE UNIVERSITY, priority 2019, published 2022).

Molecules are shown by their SMILES.

The subject of one data set is Raw cells. The data set is described as follows: iNOS/Arg mRNA expression of macrophage with IFNγ (RT-qPCR). Format: cell-based. As to conditions: in the presence of IFNγ 10 ng/mL; GU treated. As to the method: (§1) FIGS. 12A-12C show the effects of various YIV-906 formulations on M1/M2 mRNA expression. […] Raw cells were cultured in the presence of murine M-CSF (10 ng/mL) for 3 days, and then cultured in presence with IFNγ 10 ng/mL alone or with YIV-906GU/its components to induce polarization to M1-like macrophage for 24 h. The mRNA expression was determined by RT-qPCR following treatment at day 8. FIG. 12C illustrates the detection of YIV-906 compounds of Hepa 1-6 tumor following oral administration of YIV-906 with or without Anti-PD1 using LC-MS as described herein.
Total RNA was extracted with TRIzol reagent (Invitrogen, California, USA). The aqueous phase was collected and then one volume of ethanol was added, following the manufacturer's instructions. Before centrifuging, this slurry was added to a column (miRNeasy, Qiagen, Venlo, Limburg) for further extraction and simultaneous DNA digestion (RNase-Free DNAse set, Qiagen). cDNA was synthesized using random primers and reverse transcriptase MMLV (New England Biolabs, Ipswich, MA). qPCR assays were performed using iTaq™ SYBR® Green Supermix and the CFX96 Real-Time PCR Detection System (Bio-Rad Laboratories, Hercules, Calif.).
(In general: Quantitative PCR measures a nucleic acid by following its amplification.)

Data set [1] in a line: LC-MS detection of YIV-906 compounds of Hepa 1-6 tumor. Also noted: species or system mice. As to conditions: mouse, in vivo; for detection in the tumor mass: po. As to the method: as §1
Each tumor sample were homogenized in 200 μL acetronitrile/methanol/water(2/2/1, v/v/v) and 1 mm glass beads (BioSpec Products, Bartlesville, Okla.) for 30 s at 3500 rpm twice. The homogenate was then centrifuged at 12000 rpm for 15 min at 4° C. The supernatant was dried down in a Speedvac. The residue of each tumor sample was re-dissolved in 100 μL of acetonitrile, and vortexed at 3000 rpm for 3 min. The solution was then centrifuged at 12000 rpm at 4° C. for 15 min, and 2 μL supernatant was injected into the UPLC-QTOF system for analysis. All sample analyses were performed on an ACQUITY ultra-performance liquid chromatography (UPLC) system coupled with a quadrupole-time of flight (Q-TOF) MS instrument (UPLC Xevo G2-XS QTOF MS, Waters Corp., Milford, Mass., USA) with an electrospray ionization (ESI) source. Separation was carried out on a Waters ACQUITY BEH C18 column (2.1 mm×100 mm id, 1.7 μm) with a guard column (Waters ACQUITY BEH C18 column (2.1 mm×5 mm id, 1.7 μm)).
The mobile phase consisted of acetonitrile (A) and water containing 0.1% formic acid (B) using a gradient elution of 5% A at 0-2 min, 5-10% A at 2-3 min, 10-17% A at 3-10 min, 17-30% A at 10-15 min, 30-40% A at 15-20 min, 40-80% A at 20-25 min, 80% A at 25-30 min, 80-5% A at 30-31 min, and 5% A at 31-35 min. The flow rate was 0.3 mL/min. Mass spectrometry was performed on a Water Xevo G2-XS QTOF. The scan range was from 50 to 1000 Da. For the negative electrospray mode, the capillary voltage and cone voltage were set at 2.5 kV and 60 V, respectively. […]

In another data set the target is T1, mouse IDO (Mus musculus, UniProt P28776).
T1 construct: expressed in transfected cells; host or cells: HEK293
The data set is described as follows: IDO activity of IDO transfected HEK293 cells. Format: cell-based. As to conditions: L-tryptophan 125 μM, 24 hr, kynurenine in medium.

T1 sequence (P28776 whole entry): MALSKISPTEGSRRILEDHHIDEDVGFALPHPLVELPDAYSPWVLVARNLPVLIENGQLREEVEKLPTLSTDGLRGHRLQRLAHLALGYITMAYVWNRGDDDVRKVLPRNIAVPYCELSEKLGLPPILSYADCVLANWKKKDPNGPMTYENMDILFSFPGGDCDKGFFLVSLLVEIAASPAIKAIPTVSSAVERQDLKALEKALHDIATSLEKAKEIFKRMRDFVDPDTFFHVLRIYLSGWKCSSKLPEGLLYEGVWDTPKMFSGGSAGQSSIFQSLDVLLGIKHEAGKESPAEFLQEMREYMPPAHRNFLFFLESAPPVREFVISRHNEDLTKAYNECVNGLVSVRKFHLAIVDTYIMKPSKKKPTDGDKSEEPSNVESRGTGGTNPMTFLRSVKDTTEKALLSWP
Experimental for mouse IDO: HEK293 cells were transfected with mouse IDO expression plasmids and then seeded for culturing overnight. L-tryptophan 125 μM with or without YIV906, YIV906GU or its flavonoids were added to the wells for 24 hr. The concentration of kynurenine of culture medium was measured using colorimetric based assay. Results were normalized to protein concentration in each well.
2×10^6 HEK293 cells were transfected with mouse IDO (2 μg/10 cm plate) for 48 h. For one plate, 1 mL PBS was used to collect cells into a 2 ml tube. Cells were centrifuged at 3,500 rpm 1 min. Cells were then sonicated in ice cold PB buffer (1 mL, pH 6.5). Cell lysis was clarified by centrifuging at 12,000 rpm for 5 min at 4° C. 25 μL cell lysis solution was mixed with YIV906 or YIV906GU (25 μL) at desired concentrations. Reaction buffer containing 50 μL PB buffer (100 mM, pH 6.5), 10 μL methylene blue (2.5%), 100 μL catalase (20 mg/mL), 250 μL L-tryptophan (500 mM) and, for every 10 mL of total solution, 70 mg of vitamin C. The reaction buffer was then added to the cell lysis solution. The solution was allowed to react for 1.5 h at 37° C. Trichloroacetic acid 30% (25 μL) was added and incubated at 50° C. for 1 hr. […] Absorbance at 540 nm was measured using a UV-vis spectrometer to determine kynurenine concentration.

As to `COc1c(O)cc2oc(-c3ccccc3)cc(=O)c2c1O` [oroxylin A], in the data set with Raw cells, the “IFNγ action on increasing iNOS/Arg ratio” value is reported as “potentiate”. In data set [1], the “detection in the tumor mass” value is given as “detected”.
On to `O=c1cc(-c2ccccc2)oc2cc(O)c(O)c(O)c12` [baicalein], for which the “IDO enzyme activity in cell cultures” value on mouse IDO is “most potent”. In the data set on Raw cells, the “IFNγ action on increasing iNOS/Arg ratio” value is recorded as “potentiate”. In addition, in data set [1], the “presence in tumors of the YIV-906 plus anti-PD1 group” value is reported as “did not have” and the “detection in the tumor mass” value is reported as “detected”.
